Legend:
[1] = Drug distribution in Sprague-Dawley rat plasma to blood ratio at 100 mg/kg, po by HPLC analysis; assay type: ADME, organism-based; details: in vivo
[2] = Metabolic stability in monkey liver microsomes assessed as intrinsic clearance measured after 90 mins by HPLC/MS/MS analysis; assay type: ADME, Macaca mulatta, Microsome; details: rhesus monkey, read-out: CLH
[3] = Plasma protein binding in female rat assessed as unbound fraction; assay type: ADME, cell-free
[4] = Oral bioavailability in Beagle dog at 3 mg/kg administered as single dose measured up to 24 hrs by HPLC analysis; assay type: ADME, organism-based, Canis lupus familiaris; details: in vivo
[5] = Plasma protein binding in monkey assessed as unbound fraction; assay type: ADME, cell-free, Macaca mulatta; details: rhesus monkey
[6] = Oral bioavailability in mouse at 3 mg/kg administered as single dose measured up to 24 hrs by HPLC analysis; assay type: ADME, organism-based; details: in vivo
[7] = Clearance in female Sprague-Dawley rat at 3 mg/kg, po administered as single dose measured up to 24 hrs by HPLC analysis; assay type: ADME, organism-based; details: in vivo
[8] = Clearance in mouse at 3 mg/kg, po administered as single dose measured up to 24 hrs by HPLC analysis; assay type: ADME, organism-based; details: in vivo
[9] = Intrinsic clearance in human hepatocytes; assay type: ADME, cell-based, Hepatocyte; details: read-out: CLH
[10] = Oral bioavailability in cynomolgus monkey at 3 mg/kg administered as single dose measured up to 24 hrs by HPLC analysis; assay type: ADME, organism-based, Macaca fascicularis; details: in vivo
[11] = Volume of distribution at steady state in cynomolgus monkey at 3 mg/kg, po administered as single dose measured up to 24 hrs by HPLC analysis; assay type: ADME, organism-based, Macaca fascicularis; details: in vivo
[12] = Clearance in Beagle dog at 3 mg/kg, po administered as single dose measured up to 24 hrs by HPLC analysis; assay type: ADME, organism-based, Canis lupus familiaris; details: in vivo
[13] = tested on: Extensor digitorum longus; test: Increase in muscle tension in rat extensor digitorum longus muscle rat model assessed as free plasma concentration to increase muscle tension at subtetanic nerve stimulation rate of 30 Hz; assay type: functional, tissue-based
[14] = Clearance in cynomolgus monkey at 3 mg/kg, po administered as single dose measured up to 24 hrs by HPLC analysis; assay type: ADME, organism-based, Macaca fascicularis; details: in vivo
[15] = Intrinsic clearance in female rat hepatocytes; assay type: ADME, cell-based, Hepatocyte; details: read-out: CLH
[16] = Plasma protein binding in dog assessed as unbound fraction; assay type: ADME, cell-free, Canis lupus familiaris
[17] = Oral bioavailability in female Sprague-Dawley rat at 3 mg/kg administered as single dose measured up to 24 hrs by HPLC analysis; assay type: ADME, organism-based; details: in vivo
[18] = Intrinsic clearance in dog hepatocytes; assay type: ADME, cell-based, Canis lupus familiaris, Hepatocyte; details: read-out: CLH
[19] = Clearance in male Sprague-Dawley rat at 3 mg/kg, po administered as single dose measured up to 24 hrs by HPLC analysis; assay type: ADME, organism-based; details: in vivo
[20] = Metabolic stability in human liver microsomes assessed as intrinsic clearance measured after 90 mins by HPLC/MS/MS analysis; assay type: ADME, Microsome; details: read-out: CLH
[21] = Drug distribution in Sprague-Dawley rat extensor digitorum longus to blood ratio at 100 mg/kg, po by HPLC analysis; assay type: ADME, organism-based
[22] = Plasma protein binding in male rat assessed as unbound fraction; assay type: ADME, cell-free
[23] = Drug distribution in Sprague-Dawley rat Soleus muscle to blood ratio at 100 mg/kg, po by HPLC analysis; assay type: ADME, organism-based
Psoas muscle [24] = test: Increase in psoas muscle force in rabbit skinned single fiber preparation at a calcium concentration that produces a force increase that is 25% of the maximum response in a control preparation by skinned fast skeletal muscle fiber assay; assay type: functional; details: Oryctolagus cuniculus
[25] = Volume of distribution at steady state in Beagle dog at 3 mg/kg, po administered as single dose measured up to 24 hrs by HPLC analysis; assay type: ADME, organism-based, Canis lupus familiaris; details: in vivo
[26] = Drug distribution in Sprague-Dawley rat brain to blood ratio at 100 mg/kg, po by HPLC analysis; assay type: ADME, organism-based
[27] = Intrinsic clearance in monkey hepatocytes; assay type: ADME, cell-based, Macaca mulatta, Hepatocyte; details: rhesus monkey, read-out: CLH
[28] = Volume of distribution at steady state in female Sprague-Dawley rat at 3 mg/kg, po administered as single dose measured up to 24 hrs by HPLC analysis; assay type: ADME, organism-based; details: in vivo
[29] = Plasma protein binding in human assessed as unbound fraction; assay type: ADME, cell-free
hERG (KCNH2) = hERG (KCNH2) (Homo sapiens, UniProt Q12809); test: Displacement of [3H]astemizole from human ERG expressed in HEK293 cells at 100 uM relative to control; assay type: cell-based; details: HEK293 cells that express hERG, probe [3H]astemizole
[30] = Efflux ratio of apparent permeability in human Caco-2 cells; assay type: ADME, cell-based
[31] = Volume of distribution at steady state in mouse at 3 mg/kg, po administered as single dose measured up to 24 hrs by HPLC analysis; assay type: ADME, organism-based; details: in vivo
[32] = target: T1, Nuclear receptor subfamily 1 group I member 2 (Homo sapiens, UniProt O75469); test: Transactivation of human PXR transfected in DPX2 cells assessed as CYP3A4 induction at 10 uM by luciferase reporter gene assay; assay type: ADME, cell-based; details: dpx2, 10 µM
T1 sequence (O75469 whole entry): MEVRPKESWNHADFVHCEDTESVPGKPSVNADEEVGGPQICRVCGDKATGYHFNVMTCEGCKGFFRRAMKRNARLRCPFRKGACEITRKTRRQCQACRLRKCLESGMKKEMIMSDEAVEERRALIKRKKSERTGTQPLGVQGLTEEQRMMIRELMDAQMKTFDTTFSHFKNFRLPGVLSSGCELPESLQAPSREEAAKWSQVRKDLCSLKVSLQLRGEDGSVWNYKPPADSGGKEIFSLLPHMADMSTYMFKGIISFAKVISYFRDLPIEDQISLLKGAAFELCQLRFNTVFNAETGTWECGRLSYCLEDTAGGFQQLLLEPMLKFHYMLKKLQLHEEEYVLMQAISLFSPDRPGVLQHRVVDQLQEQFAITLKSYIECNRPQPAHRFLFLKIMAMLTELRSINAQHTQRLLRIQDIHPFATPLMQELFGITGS

[33] = Metabolic stability in female rat liver microsomes assessed as intrinsic clearance measured after 90 mins by HPLC/MS/MS analysis; assay type: ADME, Microsome; details: read-out: CLH
[34] = Volume of distribution at steady state in male Sprague-Dawley rat at 3 mg/kg, po administered as single dose measured up to 24 hrs by HPLC analysis; assay type: ADME, organism-based; details: in vivo
[35] = Metabolic stability in male rat liver microsomes assessed as intrinsic clearance measured after 90 mins by HPLC/MS/MS analysis; assay type: ADME, Microsome; details: read-out: CLH
[36] = Intrinsic clearance in male rat hepatocytes; assay type: ADME, cell-based, Hepatocyte; details: read-out: CLH
Psoas muscle [37] = test: Activation of fast twitch skeletal muscle in rabbit psoas muscle myofibrils by measuring increase in myofibril ATPase activity at 25% calcium concentration; assay type: functional; details: Oryctolagus cuniculus
[38] = Metabolic stability in dog liver microsomes assessed as intrinsic clearance measured after 90 mins by HPLC/MS/MS analysis; assay type: ADME, Canis lupus familiaris, Microsome; details: read-out: CLH

Sequence of hERG (KCNH2) (Q12809 whole entry): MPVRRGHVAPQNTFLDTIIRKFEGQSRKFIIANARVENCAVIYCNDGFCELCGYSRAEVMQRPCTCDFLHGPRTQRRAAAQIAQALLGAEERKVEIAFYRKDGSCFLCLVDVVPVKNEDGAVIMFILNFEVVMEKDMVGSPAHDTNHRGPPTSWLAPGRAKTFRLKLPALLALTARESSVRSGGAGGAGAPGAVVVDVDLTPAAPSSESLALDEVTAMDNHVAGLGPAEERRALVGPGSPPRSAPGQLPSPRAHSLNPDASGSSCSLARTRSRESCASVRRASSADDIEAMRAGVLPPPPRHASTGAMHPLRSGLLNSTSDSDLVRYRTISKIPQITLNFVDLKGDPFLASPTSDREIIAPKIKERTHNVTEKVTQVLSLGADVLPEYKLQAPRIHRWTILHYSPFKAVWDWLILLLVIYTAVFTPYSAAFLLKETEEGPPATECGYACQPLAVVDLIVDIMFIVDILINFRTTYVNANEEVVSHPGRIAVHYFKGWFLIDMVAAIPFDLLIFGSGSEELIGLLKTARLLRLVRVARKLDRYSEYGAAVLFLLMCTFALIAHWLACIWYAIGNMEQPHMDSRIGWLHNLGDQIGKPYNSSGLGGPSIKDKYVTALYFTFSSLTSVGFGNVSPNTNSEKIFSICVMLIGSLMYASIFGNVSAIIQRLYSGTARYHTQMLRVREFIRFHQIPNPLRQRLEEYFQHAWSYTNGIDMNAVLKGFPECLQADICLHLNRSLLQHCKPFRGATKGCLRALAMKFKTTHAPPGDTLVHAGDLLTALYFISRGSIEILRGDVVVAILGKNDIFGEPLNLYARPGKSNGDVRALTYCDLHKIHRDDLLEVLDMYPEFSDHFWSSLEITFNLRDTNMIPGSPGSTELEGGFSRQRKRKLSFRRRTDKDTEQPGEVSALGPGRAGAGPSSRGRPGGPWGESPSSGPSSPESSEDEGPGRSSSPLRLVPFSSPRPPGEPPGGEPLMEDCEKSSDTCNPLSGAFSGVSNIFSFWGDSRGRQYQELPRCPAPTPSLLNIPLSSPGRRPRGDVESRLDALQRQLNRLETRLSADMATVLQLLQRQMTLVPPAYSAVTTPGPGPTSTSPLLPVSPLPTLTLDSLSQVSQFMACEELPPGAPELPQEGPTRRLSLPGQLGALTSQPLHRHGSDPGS

Ratio [1]: 1 | CLint scaled [2]: 1.08 L/h/kg | fraction unbound [3]: 0.5 | bioavailability [4]: 25% | fraction unbound [5]: 0.49 | bioavailability [6]: 47% | CL/F [7]: 1.44 L/h/kg | CL/F [8]: 5.16 L/h/kg | CLint scaled [9]: < 0.84 L/h/kg | bioavailability [10]: 26% | Vdss [11]: 1.3 L/kg | CL/F [12]: 1.32 L/h/kg | EC50 [13]: 38 µM | CL/F [14]: 0.78 L/h/kg | CLint scaled [15]: 13 L/h/kg | fraction unbound [16]: 0.5 | bioavailability [17]: 45% | CLint scaled [18]: 2.22 L/h/kg | CL/F [19]: 4.44 L/h/kg | CLint scaled [20]: < 0.84 L/h/kg | Kp [21]: 0.85 | fraction unbound [22]: 0.5 | Kp [23]: 0.77 | Vdss [25]: 1.9 L/kg | Kp [26]: 0.063 | CLint scaled [27]: 1.38 L/h/kg | Vdss [28]: 1.3 L/kg | fraction unbound [29]: 0.49 | efflux ratio [30]: 3.1 | Vdss [31]: 3.3 L/kg | Activity [32]: 18% | CLint scaled [33]: 0.9 L/h/kg | Vdss [34]: 2.6 L/kg | CLint scaled [35]: 0.9 L/h/kg | CLint scaled [36]: 3.36 L/h/kg | CLint scaled [38]: 0.66 L/h/kg
SMILES: NC(=O)c1ccn(-c2cnc(NC[C@]3(c4ncccc4F)C[C@H](F)C3)nc2)c1 [RELDESEMTIV]
EC30 (Psoas muscle [24]): 0.8 µM | inhibition at 100 µM (hERG (KCNH2)): 33% | EC40 (Psoas muscle [37]): 0.6 µM
